The source made the active and inactive calls.
Assays:
[1] = biological target: Polyadenylate-binding protein 1 (Homo sapiens, UniProt P11940); assay: PABP1 MLLE–PAM2 binding inhibitor potency, dose response, biochemical, fluorescence polarization, FITC-PAM2 peptide (AID 602259); format: functional; conditions: read-out: IC50_Mean
[2] = biological target: T1, 1-phosphatidylinositol 4,5-bisphosphate phosphodiesterase gamma-1 (Homo sapiens, UniProt P19174); assay: Counterscreen for inhibitors of phospholipase C isozymes (PLC-B3): Fluorescence-based biochemical high throughput dose response assay to identify inhibitors of phospholipase C isozymes (PLC-gamma1).
T1 sequence (P19174 whole entry): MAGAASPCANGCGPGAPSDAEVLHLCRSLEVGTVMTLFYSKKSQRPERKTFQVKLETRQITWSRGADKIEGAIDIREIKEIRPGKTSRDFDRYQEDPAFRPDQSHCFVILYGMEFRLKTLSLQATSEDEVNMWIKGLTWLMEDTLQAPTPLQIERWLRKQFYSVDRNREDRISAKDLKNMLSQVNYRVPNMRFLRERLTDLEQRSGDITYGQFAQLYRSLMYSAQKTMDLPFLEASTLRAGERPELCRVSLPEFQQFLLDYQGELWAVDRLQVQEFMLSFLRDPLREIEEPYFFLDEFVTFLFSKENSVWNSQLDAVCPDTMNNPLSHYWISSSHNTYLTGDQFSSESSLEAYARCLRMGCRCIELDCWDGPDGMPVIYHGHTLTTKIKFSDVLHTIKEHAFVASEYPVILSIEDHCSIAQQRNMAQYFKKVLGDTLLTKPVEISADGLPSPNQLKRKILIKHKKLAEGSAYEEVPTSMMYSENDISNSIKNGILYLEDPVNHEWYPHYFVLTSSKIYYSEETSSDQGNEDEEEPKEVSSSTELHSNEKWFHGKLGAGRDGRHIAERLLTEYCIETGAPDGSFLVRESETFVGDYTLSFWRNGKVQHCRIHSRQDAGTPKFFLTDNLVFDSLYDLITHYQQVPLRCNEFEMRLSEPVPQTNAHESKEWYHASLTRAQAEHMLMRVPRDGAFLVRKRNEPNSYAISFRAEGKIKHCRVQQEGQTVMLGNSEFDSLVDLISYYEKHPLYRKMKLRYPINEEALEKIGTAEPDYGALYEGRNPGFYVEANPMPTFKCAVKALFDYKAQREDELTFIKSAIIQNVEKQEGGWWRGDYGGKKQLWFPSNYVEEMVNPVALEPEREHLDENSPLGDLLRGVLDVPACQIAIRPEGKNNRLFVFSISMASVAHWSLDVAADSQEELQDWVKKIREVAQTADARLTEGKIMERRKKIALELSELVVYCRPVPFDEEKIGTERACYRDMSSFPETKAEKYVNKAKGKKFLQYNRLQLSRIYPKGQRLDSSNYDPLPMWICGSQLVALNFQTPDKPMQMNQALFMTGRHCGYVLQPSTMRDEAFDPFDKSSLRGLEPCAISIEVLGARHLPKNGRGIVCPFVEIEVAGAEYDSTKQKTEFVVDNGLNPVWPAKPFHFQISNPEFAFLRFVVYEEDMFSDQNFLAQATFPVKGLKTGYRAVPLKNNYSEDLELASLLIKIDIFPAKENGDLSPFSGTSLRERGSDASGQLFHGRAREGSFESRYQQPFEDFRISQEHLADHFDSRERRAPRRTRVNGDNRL

Caspase-7 = Caspase-7 (Homo sapiens, UniProt P55210); assay: human caspase-7 inhibitors, dose response, selectivity assay for caspase-6 inhibitor project, biochemical, DEVD-R110 fluorescence, cherry-pick (AID 743295)
[3] = biological target: T2, 1-phosphatidylinositol 4,5-bisphosphate phosphodiesterase beta-3 (Homo sapiens, UniProt Q01970); assay: Fluorescence-based biochemical high throughput dose response assay to identify inhibitors of phospholipase C isozymes (PLC-B3).
T2 sequence (Q01970 whole entry): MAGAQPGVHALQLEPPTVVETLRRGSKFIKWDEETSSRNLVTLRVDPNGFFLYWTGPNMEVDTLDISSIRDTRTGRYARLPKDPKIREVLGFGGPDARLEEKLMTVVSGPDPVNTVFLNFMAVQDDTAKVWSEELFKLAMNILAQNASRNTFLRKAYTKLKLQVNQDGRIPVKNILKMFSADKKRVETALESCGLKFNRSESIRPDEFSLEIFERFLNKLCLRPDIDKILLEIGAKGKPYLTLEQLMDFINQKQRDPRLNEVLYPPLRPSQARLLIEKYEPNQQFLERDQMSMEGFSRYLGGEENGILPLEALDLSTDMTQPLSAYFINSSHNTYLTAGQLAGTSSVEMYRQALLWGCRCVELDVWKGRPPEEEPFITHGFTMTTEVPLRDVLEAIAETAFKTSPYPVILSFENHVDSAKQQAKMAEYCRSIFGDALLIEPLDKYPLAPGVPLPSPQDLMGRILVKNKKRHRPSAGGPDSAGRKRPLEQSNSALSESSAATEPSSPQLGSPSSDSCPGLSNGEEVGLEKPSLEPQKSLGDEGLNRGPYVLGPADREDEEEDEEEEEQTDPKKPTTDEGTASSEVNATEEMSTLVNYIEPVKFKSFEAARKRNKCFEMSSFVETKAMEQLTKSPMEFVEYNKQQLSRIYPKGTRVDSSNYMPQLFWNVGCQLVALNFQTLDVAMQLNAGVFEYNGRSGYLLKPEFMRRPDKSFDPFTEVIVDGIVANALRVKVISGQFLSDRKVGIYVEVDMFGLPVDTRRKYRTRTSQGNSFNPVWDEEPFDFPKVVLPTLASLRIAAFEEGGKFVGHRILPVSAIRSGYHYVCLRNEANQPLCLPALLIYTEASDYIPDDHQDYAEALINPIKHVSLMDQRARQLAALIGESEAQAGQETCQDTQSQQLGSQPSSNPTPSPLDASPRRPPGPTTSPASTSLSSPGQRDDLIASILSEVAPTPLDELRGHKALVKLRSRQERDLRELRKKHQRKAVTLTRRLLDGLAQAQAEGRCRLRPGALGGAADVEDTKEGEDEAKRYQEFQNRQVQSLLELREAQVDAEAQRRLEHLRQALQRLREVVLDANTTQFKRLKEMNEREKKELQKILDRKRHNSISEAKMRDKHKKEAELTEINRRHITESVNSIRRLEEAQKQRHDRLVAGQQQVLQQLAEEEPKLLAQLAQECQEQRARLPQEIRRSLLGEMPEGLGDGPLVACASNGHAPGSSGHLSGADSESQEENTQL

Chain of Polyadenylate-binding protein 1 (P11940 whole entry): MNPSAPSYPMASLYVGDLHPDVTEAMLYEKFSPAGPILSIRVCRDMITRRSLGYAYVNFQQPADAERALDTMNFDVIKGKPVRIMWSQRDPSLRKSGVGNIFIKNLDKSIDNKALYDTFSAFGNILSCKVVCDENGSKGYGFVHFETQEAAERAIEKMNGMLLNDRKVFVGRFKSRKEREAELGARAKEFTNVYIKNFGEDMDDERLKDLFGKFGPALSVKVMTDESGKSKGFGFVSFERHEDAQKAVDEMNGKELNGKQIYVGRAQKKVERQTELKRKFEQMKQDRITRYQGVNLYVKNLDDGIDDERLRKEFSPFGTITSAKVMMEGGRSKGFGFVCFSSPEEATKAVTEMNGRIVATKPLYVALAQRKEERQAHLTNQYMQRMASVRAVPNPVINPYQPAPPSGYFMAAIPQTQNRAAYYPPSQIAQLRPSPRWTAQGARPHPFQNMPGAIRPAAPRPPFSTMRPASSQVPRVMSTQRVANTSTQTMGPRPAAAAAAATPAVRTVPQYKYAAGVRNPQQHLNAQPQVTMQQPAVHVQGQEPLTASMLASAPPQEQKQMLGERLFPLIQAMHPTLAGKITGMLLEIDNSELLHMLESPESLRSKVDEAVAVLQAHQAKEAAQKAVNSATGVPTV
Chain of Caspase-7 (P55210 24-198 limits assumed): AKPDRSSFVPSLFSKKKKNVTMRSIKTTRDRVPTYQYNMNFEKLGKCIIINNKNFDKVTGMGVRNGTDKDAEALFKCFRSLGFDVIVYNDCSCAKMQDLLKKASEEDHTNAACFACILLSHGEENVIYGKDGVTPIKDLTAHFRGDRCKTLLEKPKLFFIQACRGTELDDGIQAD
Chain of Caspase-7 (P55210 207-303 limits assumed): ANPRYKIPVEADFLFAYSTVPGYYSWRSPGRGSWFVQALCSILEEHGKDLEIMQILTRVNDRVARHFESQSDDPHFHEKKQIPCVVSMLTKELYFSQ

For O=c1c(O)cccc2cc(O)c(O)c(O)c12 [PURPUROGALLIN], the IC50 [1] was 47.9 µM (inactive), the IC50 [2] was 20.9 µM (inactive) and the AC50 (Caspase-7) was 1.09 µM (active). The IC50 [3] was > 123 µM (inactive).

Source: ChEMBL document CHEMBL1201862, “PubChem BioAssay data set” (2004)
